In PubChem BioAssay AID1918947 (Molecular Pharmacology Branch, DTP, NCI, 2023):
Several values for one entry are separate records, joined by “and”; a condition that tells them apart may be missing. Equal values may be shown once.

Tested on: A498 complex spheroid viability
Experiment: Anticancer human tumor A498 cell line growth inhibition;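 further: spheroids exposed to agents for seven days before readout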;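 on viability, T/C: 100% = DMSO vehicle-treated spheroids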
Details: for viability, T/C: stronger effect = lower value
Procedure, shortened: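 Drug combinations with the LSD1 inhibitor iadademstat tested on tumor cells co-cultured as spheroids with endothelial cells and mesenchymal stem cells. Concentrations descended in half-log increments from clinical Cmax or 10 microM.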

[1] = curve of first compound, second compound 0.1 µM
[2] = curve of first compound, second compound 0.316 µM
[3] = curve of first compound, second compound 1 µM
[4] = curve of first compound, second compound 3.16 µM
[5] = curve of first compound, second compound 10 µM
[6] = second compound 0.1 µM, first compound 0.0316 µM
[7] = second compound 0.1 µM, first compound 0.1 µM
[8] = second compound 0.1 µM, first compound 0.316 µM
[9] = second compound 0.1 µM, first compound 1 µM
[10] = second compound 0.1 µM, first compound 3.16 µM
[11] = second compound 0.1 µM, first compound 10 µM
[12] = second compound 0.316 µM, first compound 0.0316 µM
[13] = second compound 0.316 µM, first compound 0.1 µM
[14] = second compound 0.316 µM, first compound 0.316 µM
[15] = second compound 0.316 µM, first compound 1 µM
[16] = second compound 0.316 µM, first compound 3.16 µM
[17] = second compound 0.316 µM, first compound 10 µM
[18] = second compound 1 µM, first compound 0.0316 µM
[19] = second compound 1 µM, first compound 0.1 µM
[20] = second compound 1 µM, first compound 0.316 µM
[21] = second compound 1 µM, first compound 1 µM
[22] = second compound 1 µM, first compound 3.16 µM
[23] = second compound 1 µM, first compound 10 µM
[24] = second compound 3.16 µM, first compound 0.0316 µM
[25] = second compound 3.16 µM, first compound 0.1 µM
[26] = second compound 3.16 µM, first compound 0.316 µM
[27] = second compound 3.16 µM, first compound 1 µM
[28] = second compound 3.16 µM, first compound 3.16 µM
[29] = second compound 3.16 µM, first compound 10 µM
[30] = second compound 10 µM, first compound 0.0316 µM
[31] = second compound 10 µM, first compound 0.1 µM
[32] = second compound 10 µM, first compound 0.316 µM
[33] = second compound 10 µM, first compound 1 µM
[34] = second compound 10 µM, first compound 3.16 µM
[35] = second compound 10 µM, first compound 10 µM

O=C(c1cc(Cc2n[nH]c(=O)c3ccccc23)ccc1F)N1CCN(C(=O)C2CC2)CC1 + NC1CCC(NC2CC2c2ccccc2)CC1
IC50 [1]: > 10000 nM
IC50 [2]: > 10000 nM
IC50 [3]: > 10000 nM
IC50 [4]: > 10000 nM
IC50 [5]: > 10000 nM
viability, T/C [6]: 85.1%
viability, T/C [7]: 82.7%
viability, T/C [8]: 89.1%
viability, T/C [9]: 85.8%
viability, T/C [10]: 84.7%
viability, T/C [11]: 82.1%
viability, T/C [12]: 92.3%
viability, T/C [13]: 93.3%
viability, T/C [14]: 94.4%
viability, T/C [15]: 94.4%
viability, T/C [16]: 85%
viability, T/C [17]: 84.4%
viability, T/C [18]: 82.3%
viability, T/C [19]: 87.4%
viability, T/C [20]: 91.1%
viability, T/C [21]: 87.4%
viability, T/C [22]: 79.5%
viability, T/C [23]: 75.9%
viability, T/C [24]: 79.8%
viability, T/C [25]: 85.3%
viability, T/C [26]: 69.5%
viability, T/C [27]: 85.5%
viability, T/C [28]: 79.2%
viability, T/C [29]: 77.1%
viability, T/C [30]: 71%
viability, T/C [31]: 73.7%
viability, T/C [32]: 74.4%
viability, T/C [33]: 74.1%
viability, T/C [34]: 62.5%
viability, T/C [35]: 66.8%

CC1(C)CCC(CN2CCN(c3ccc(C(=O)NS(=O)(=O)c4ccc(NCC5CCOCC5)c([N+](=O)[O-])c4)c(Oc4cnc5[nH]ccc5c4)c3)CC2)=C(c2ccc(Cl)cc2)C1 + NC1CCC(NC2CC2c2ccccc2)CC1
IC50 [1]: 3670 nM
IC50 [2]: 3890 nM
IC50 [3]: 3470 nM
IC50 [4]: 2710 nM
IC50 [5]: 1970 nM
viability, T/C [6]: 87.7%
viability, T/C [7]: 89.2%
viability, T/C [8]: 85.5%
viability, T/C [9]: 76.4%
viability, T/C [10]: 57.5%
viability, T/C [11]: 3.91%
viability, T/C [12]: 87.2%
viability, T/C [13]: 92.6%
viability, T/C [14]: 91.3%
viability, T/C [15]: 79.1%
viability, T/C [16]: 60.7%
viability, T/C [17]: 4.52%
viability, T/C [18]: 84.5%
viability, T/C [19]: 86.2%
viability, T/C [20]: 85.1%
viability, T/C [21]: 76.9%
viability, T/C [22]: 54.3%
viability, T/C [23]: 3.45%
viability, T/C [24]: 82.5%
viability, T/C [25]: 85.5%
viability, T/C [26]: 80%
viability, T/C [27]: 70.2%
viability, T/C [28]: 47%
viability, T/C [29]: 3.58%
viability, T/C [30]: 81.1%
viability, T/C [31]: 75.2%
viability, T/C [32]: 76.5%
viability, T/C [33]: 65.2%
viability, T/C [34]: 39.2%
viability, T/C [35]: 2.98%

CC(C)CC(NC(=O)CNC(=O)c1cc(Cl)ccc1Cl)B1OC(=O)CC(CC(=O)O)(C(=O)O)O1 (configuration not stated)
viability, T/C (compound 0.000316 µM): 102% and 107%
viability, T/C (compound 0.001 µM): 106% and 107%
viability, T/C (compound 0.00316 µM): 69.4% and 75.4%
viability, T/C (compound 0.01 µM): 24.7% and 21.5%
viability, T/C (compound 0.0316 µM): 5.96% and 6.51%
viability, T/C (compound 0.1 µM): 2.46% and 1.92%
IC50 (curve of compound): 5.29 nM and 5.46 nM

NC1CC1c1ccc(-c2cccc(O)c2)cc1 (configuration not stated)
viability, T/C (compound 0.316 µM): 104% [middle of 25 runs]
viability, T/C (compound 10 µM): 94.1% [middle of 25 runs]
IC50 (compound alone, run of 12/07/2021): > 10000 nM

COc1ccc([C@@H](O)c2cc(-c3ncnc4cc(N5CCOCC5)ccc34)c(F)cc2Cl)nn1 + NC1CCC(NC2CC2c2ccccc2)CC1
IC50 [1]: 113 nM
IC50 [2]: 154 nM
IC50 [3]: 128 nM
IC50 [4]: 130 nM
IC50 [5]: 126 nM
viability, T/C [6]: 80.5%
viability, T/C [7]: 53.5%
viability, T/C [8]: 28.8%
viability, T/C [9]: 20.4%
viability, T/C [10]: 11%
viability, T/C [11]: 6.4%
viability, T/C [12]: 79.6%
viability, T/C [13]: 58.5%
viability, T/C [14]: 35.6%
viability, T/C [15]: 23.3%
viability, T/C [16]: 12%
viability, T/C [17]: 6.71%
viability, T/C [18]: 70.6%
viability, T/C [19]: 55.2%
viability, T/C [20]: 32.8%
viability, T/C [21]: 19.6%
viability, T/C [22]: 10.3%
viability, T/C [23]: 6.44%
viability, T/C [24]: 69.3%
viability, T/C [25]: 54.4%
viability, T/C [26]: 35.4%
viability, T/C [27]: 21%
viability, T/C [28]: 9.68%
viability, T/C [29]: 5.91%
viability, T/C [30]: 66.8%
viability, T/C [31]: 54.1%
viability, T/C [32]: 35.2%
viability, T/C [33]: 23.5%
viability, T/C [34]: 10.1%
viability, T/C [35]: 5.83%

Cn1ncnc1C1c2n[nH]c(=O)c3cc(F)cc(c23)NC1c1ccc(F)cc1 (configuration not stated) + NC1CC1c1ccc(-c2cccc(O)c2)cc1
IC50 [1]: > 100 nM
IC50 [2]: > 100 nM
IC50 [3]: > 100 nM
IC50 [4]: > 100 nM
IC50 [5]: > 100 nM
viability, T/C (second compound 0.1 µM, first compound 0.000316 µM): 94.6%
viability, T/C (second compound 0.1 µM, first compound 0.001 µM): 97.7%
viability, T/C (second compound 0.1 µM, first compound 0.00316 µM): 104%
viability, T/C (second compound 0.1 µM, first compound 0.01 µM): 94.9%
viability, T/C [6]: 96.2%
viability, T/C [7]: 94.2%
viability, T/C (second compound 0.316 µM, first compound 0.000316 µM): 103%
viability, T/C (second compound 0.316 µM, first compound 0.001 µM): 111%
viability, T/C (second compound 0.316 µM, first compound 0.00316 µM): 104%
viability, T/C (second compound 0.316 µM, first compound 0.01 µM): 92.1%
viability, T/C [12]: 100%
viability, T/C [13]: 93.3%
viability, T/C (second compound 1 µM, first compound 0.000316 µM): 89.3%
viability, T/C (second compound 1 µM, first compound 0.001 µM): 93.3%
viability, T/C (second compound 1 µM, first compound 0.00316 µM): 96.4%
viability, T/C (second compound 1 µM, first compound 0.01 µM): 84.6%
viability, T/C [18]: 89.1%
viability, T/C [19]: 87.8%
viability, T/C (second compound 3.16 µM, first compound 0.000316 µM): 87%
viability, T/C (second compound 3.16 µM, first compound 0.001 µM): 89.8%
viability, T/C (second compound 3.16 µM, first compound 0.00316 µM): 90.2%
viability, T/C (second compound 3.16 µM, first compound 0.01 µM): 89%
viability, T/C [24]: 91.9%
viability, T/C [25]: 77.8%
viability, T/C (second compound 10 µM, first compound 0.000316 µM): 80.8%
viability, T/C (second compound 10 µM, first compound 0.001 µM): 86.6%
viability, T/C (second compound 10 µM, first compound 0.00316 µM): 91.3%
viability, T/C (second compound 10 µM, first compound 0.01 µM): 87.3%
viability, T/C [30]: 78.6%
viability, T/C [31]: 78.4%

CC[C@@]1(O)C(=O)OCc2c1cc1n(c2=O)Cc2cc3c(CN(C)C)c(O)ccc3nc2-1
viability, T/C (compound 0.000316 µM): 106% and 95.2%
viability, T/C (compound 0.001 µM): 103% and 95.8%
viability, T/C (compound 0.00316 µM): 86.4% and 82.6%
viability, T/C (compound 0.01 µM): 84.5% and 79.2%
viability, T/C (compound 0.0316 µM): 62.7% and 56.4%
viability, T/C (compound 0.1 µM): 33.7% and 32.4%
IC50 (curve of compound): 52.5 nM and 44.6 nM

CC1COCCN1c1cc(C2(S(C)(=N)=O)CC2)nc(-c2ccnc3[nH]ccc23)n1 (configuration not stated) + NC1CCC(NC2CC2c2ccccc2)CC1
IC50 [1]: 648 nM
IC50 [2]: 784 nM
IC50 [3]: 677 nM
IC50 [4]: 590 nM
IC50 [5]: 507 nM
viability, T/C [6]: 91.8%
viability, T/C [7]: 89%
viability, T/C [8]: 70.7%
viability, T/C [9]: 37.2%
viability, T/C [10]: 18.2%
viability, T/C [11]: 12%
viability, T/C [12]: 99%
viability, T/C [13]: 96.9%
viability, T/C [14]: 82.8%
viability, T/C [15]: 40.6%
viability, T/C [16]: 18.9%
viability, T/C [17]: 11.2%
viability, T/C [18]: 86.8%
viability, T/C [19]: 94%
viability, T/C [20]: 72.4%
viability, T/C [21]: 37.6%
viability, T/C [22]: 19.6%
viability, T/C [23]: 11.4%
viability, T/C [24]: 81.3%
viability, T/C [25]: 85.6%
viability, T/C [26]: 69.7%
viability, T/C [27]: 32.7%
viability, T/C [28]: 17.6%
viability, T/C [29]: 12.3%
viability, T/C [30]: 76.6%
viability, T/C [31]: 75.9%
viability, T/C [32]: 60.8%
viability, T/C [33]: 33.9%
viability, T/C [34]: 17.9%
viability, T/C [35]: 12.8%
